The text below walks through data of US6242446A, “Method for treating attention deficit disorder” (Merck & Co., Inc., priority 2000, dated 2001).

Like-named read-outs stand apart in the source and are kept apart here. Some results are limits rather than exact numbers.

The test system of assay [1] is distress vocalisations in guinea-pig pups. Briefly: Separation-Induced Vocalisation Assay. Type of assay: in vivo, guinea-pigs. The conditions noted are these: Cavia porcellus, po; 4 hr. pre-treatment; read-out: guinea-pig vocalisation (4 hr. pre-treatment) ID50. An excerpt:
Separation-Induced Vocalisation Assay Male and female guinea-pigs pups are housed in family groups with their mothers and littermates throughout the study. Experiments are commenced […] when the pups are 2 weeks old. Before entering an experiment, the pups are screened to ensure that a vigorous vocalisation response is reproducibly elicited following maternal separation. The pups are placed individually in an observation cage (55 cm×39 cm×19 cm) in a room physically isolated from the home cage for 15 minutes and the duration of vocalisation during this baseline period is recorded. Only animals which vocalise for longer than 5 minutes are employed for drug challenge studies (approximately 50% of available pups may fail to reach this criterion). On test days each pup receives an oral dose or a s.c. or i.p. injection of test compound or vehicle and is then immediately returned to the home cage with its mother and siblings for 30 minutes to 60 minutes (or for up to 4 hours following an oral dose, dependant upon the oral pharmacokinetics of the test compound) before social isolation for 15 minutes as described above. The duration of vocalisation on drug treatment days is expressed as a percentage of the pre-treatment baseline value for each animal. The same subjects are retested once weekly for up to 6 weeks. Between 6 and 8 animals receive each test compound at each dose tested. […]

Assay [2] concerns cisplatin-induced emesis in ferrets. Description: Ferret Emesis Assay (cisplatin-induced emesis). Type of assay: in vivo. The conditions noted are these: Mustela putorius, po; cisplatin 10 mg/kg i.v.; 4 hours observation; read-out: ferret emesis ID90.
Protocol: Individually housed male ferrets (1.0-2.5 kg) are dosed orally by gavage with test compound. Ten minutes later they are fed with approximately 100 g of tinned cat food. At 60 minutes following oral dosing, cisplatin (10 mg/kg) is given i.v. via a jugular vein catheter inserted under a brief period of halothane anaesthesia. The catheter is then removed, the jugular vein ligated and the skin incision closed. The ferrets recover rapidly from the anaesthetic and are mobile within 10-20 minutes. The animals are observed continuously during recovery from the anaesthetic and for 4 hours following the cisplatin injection, after which time the animals are killed humanely. The numbers of retches and vomits occurring during the 4 hours after cisplatin administration are recorded by trained observers.
A further assay relates to foot tapping in gerbils. Description: Gerbil Foot-Tapping Assay (induced by central injection of an NK1 agonist). Type of assay: in vivo, Mongolian gerbils. To be noted: Meriones unguiculatus, iv. An excerpt: Gerbil Foot-Tapping Assay CNS penetrant NK-1 receptor antagonists for use in the resent invention can be identified by their ability to inhibit foot tapping in gerbils induced by anxiogenic agents (such as pentagastrin) or central infusion of NK-1 receptor agonists such as GR-73632, or caused by aversive stimulation such as foot shock or single housing, based on the method of Rupniak & Williams, Eur. J. Pharmacol., 1994, 265, 179. Male or female Mongolian gerbils (35-70 g) are anaesthetised by inhalation of an isoflurane/oxygen mixture to permit exposure of the jugular vein in order to permit administration of test compounds or vehicle in an injection volume of 5 ml/kg i.v. Alternatively, test compounds may be administered orally or by subcutaneous or intraperitoneal routes. The wound is closed and a second skin incision is made in the midline of the scalp to expose the skull. […] The duration and/or intensity of hind foot tapping is then recorded continuously for 5 minutes. Alternatively, the ability of test compounds to inhibit foot tapping evoked by aversive stimulation, such as foot shock or single housing, may be studied using a similar method of quantification.

`C[C@@H](O[C@H]1OCCN(Cc2n[nH]c(=O)[nH]2)[C@H]1c1ccc(F)cc1)c1cc(C(F)(F)F)cc(C(F)(F)F)c1` [2-(R)-(1-(R)-(3,5-bis(trifluoromethyl)-phenyl)-ethoxy)-3-(S)-(4-fluorophenyl)-4-(3-(5-oxo-1H,4H-1,2,4-triazolo)methyl)-morpholine]: the ED50 stood at 0.73 mg/kg in assay [1]; 0.36 mg/kg in the assay with foot tapping in gerbils (5 min, i.v., 5 mins., read-out: gerbil foot-tapping (5 mins.) ID50); 0.33 mg/kg in the assay with foot tapping in gerbils (24 hrs. prior to central NK1 agonist challenge, read-out: gerbil foot-tapping (24 hrs.) ID50). Besides, the ED90 in assay [2] was < 3 mg/kg.
